For one test, the target named is T1, human SGLT1 (Homo sapiens, UniProt P13866).
T1 construct: expressed in transfected cells
T1 sequence (P13866 1-664): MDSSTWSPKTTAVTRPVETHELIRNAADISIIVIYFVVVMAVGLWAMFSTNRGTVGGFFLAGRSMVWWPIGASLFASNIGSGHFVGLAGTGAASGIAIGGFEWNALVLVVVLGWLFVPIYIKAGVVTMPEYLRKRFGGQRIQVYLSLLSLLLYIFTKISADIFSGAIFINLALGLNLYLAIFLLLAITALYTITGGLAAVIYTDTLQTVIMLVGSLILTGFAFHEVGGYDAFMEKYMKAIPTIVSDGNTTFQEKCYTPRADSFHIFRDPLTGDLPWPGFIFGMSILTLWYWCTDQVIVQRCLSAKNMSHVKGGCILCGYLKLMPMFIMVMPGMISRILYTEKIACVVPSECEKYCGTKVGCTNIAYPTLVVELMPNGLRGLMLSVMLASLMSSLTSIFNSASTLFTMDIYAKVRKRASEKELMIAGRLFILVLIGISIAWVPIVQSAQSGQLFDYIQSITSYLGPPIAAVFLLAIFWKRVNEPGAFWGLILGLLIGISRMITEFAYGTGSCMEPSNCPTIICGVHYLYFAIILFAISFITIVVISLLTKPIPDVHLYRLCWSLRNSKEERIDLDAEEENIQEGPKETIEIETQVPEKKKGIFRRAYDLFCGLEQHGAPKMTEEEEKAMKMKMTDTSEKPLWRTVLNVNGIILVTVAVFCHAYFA
Kind of test: SGLT1 in vitro assay: Na-dependent 14C-AMG uptake in CHO-K1 cells stably expressing human SGLT1. The conditions noted are these: CHO-K1 cells stably expressing human SGLT1, 14C-AMG uptake; for IC50: compounds of formula (I) where R0 is fluoro; for inhibition at 0.3 µM: read-out: SGLT1 % Inh @ 0.3 μM. The format is cell-based. Put shortly:
(§1)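 CHO-K1 cells stably expressing human SGLT1 or SGLT2, induced with 10 mM Na-butyrate for 24 h. Compounds (0.001–10 μM) in Na+-containing HEPES/Tris buffer pH 7.4 were applied for 10 min, then 14C-AMG ([…]) for 2 h at 37°C; Na-dependent uptake read by scintillation; %-inhibition or IC50.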

In another test the target is T2, human SGLT2 (Homo sapiens, UniProt P31639).
T2 construct: expressed in transfected cells
T2 sequence (P31639 1-672): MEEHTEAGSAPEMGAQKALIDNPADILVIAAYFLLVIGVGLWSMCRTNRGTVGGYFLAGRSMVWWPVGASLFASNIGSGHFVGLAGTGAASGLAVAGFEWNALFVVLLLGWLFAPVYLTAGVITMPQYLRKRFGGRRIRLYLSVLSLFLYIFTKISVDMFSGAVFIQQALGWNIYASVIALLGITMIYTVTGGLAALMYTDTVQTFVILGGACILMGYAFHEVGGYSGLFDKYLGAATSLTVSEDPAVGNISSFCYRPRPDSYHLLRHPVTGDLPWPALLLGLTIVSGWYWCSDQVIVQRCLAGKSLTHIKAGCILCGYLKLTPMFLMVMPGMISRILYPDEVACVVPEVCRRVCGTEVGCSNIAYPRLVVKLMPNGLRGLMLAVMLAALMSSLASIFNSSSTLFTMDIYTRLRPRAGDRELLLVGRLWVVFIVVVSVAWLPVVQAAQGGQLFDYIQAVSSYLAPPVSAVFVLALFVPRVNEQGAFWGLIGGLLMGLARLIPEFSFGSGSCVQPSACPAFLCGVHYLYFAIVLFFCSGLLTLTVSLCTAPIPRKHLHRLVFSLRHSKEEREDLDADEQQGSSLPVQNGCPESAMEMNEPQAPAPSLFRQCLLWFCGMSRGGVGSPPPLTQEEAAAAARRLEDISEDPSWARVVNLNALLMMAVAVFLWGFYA
Kind of test: SGLT2 in vitro assay: Na-dependent 14C-AMG uptake in CHO-K1 cells stably expressing human SGLT2. The following applies: CHO-K1 cells stably expressing human SGLT2, 14C-AMG uptake; for IC50: compounds of formula (I) where R0 is fluoro; for inhibition at 0.3 µM: read-out: SGLT2 % Inh @ 0.3 μM. The format is cell-based. Put shortly: as §1

Take `Cc1cc(O)c([C@@H]2O[C@H](CO)C(F)(F)[C@H](O)[C@H]2O)cc1Cc1cc2c(s1)CCN(C(=O)c1nccs1)C2` [Compound 80]: the “SGLT1 % Inh @ 0.3 μM” value on human SGLT1 was determined as 31.1%. The “SGLT2 % Inh @ 0.3 μM” value on human SGLT2 came out at 82.1%.

In the case of `Cc1cc(O)c([C@@H]2O[C@H](CO)C(F)(F)[C@H](O)[C@H]2O)cc1Cc1cc2c(s1)CCN(C#N)C2` [Compound 82], on human SGLT1, the “SGLT1 % Inh @ 0.3 μM” value turned out to be 50.3% and it took 505 nM to reach half-maximal inhibition (IC50). Further, at human SGLT2, the “SGLT2 % Inh @ 0.3 μM” value is listed as 85.4% and half-maximal inhibition (IC50) was put at 5.5 nM.

On to `Cc1cnc(C(=O)N2CCc3sc(Cc4cc([C@@H]5O[C@H](CO)C(F)(F)[C@H](O)[C@H]5O)c(O)cc4C)cc3C2)s1` [Compound 83], for which the inhibition at 0.3 µM at human SGLT1 is 43.3%; on human SGLT2, 85.4%. Also, the IC50 against human SGLT1 came out at 449 nM; on human SGLT2 it was 9.7 nM.

As to `Cc1ccc([C@@H]2O[C@H](CO)C(F)(F)[C@H](O)[C@H]2O)cc1Cc1cc2c(s1)CCN(C(=O)C1CCCC1)C2` [Compound 84], the “SGLT1 % Inh @ 0.3 μM” value at human SGLT1 is listed as 28.5%. For the same compound, the “SGLT2 % Inh @ 0.3 μM” value on human SGLT2 was 54.4%.

Turning to `COc1ccc(Cc2ccc(O)c([C@@H]3O[C@H](CO)C(F)(F)[C@H](O)[C@H]3O)c2)cc1` [Compound 86], the “SGLT1 % Inh @ 0.3 μM” value at human SGLT1 worked out at 17.4%. Further, on human SGLT2, the “SGLT2 % Inh @ 0.3 μM” value came out at 69.5%.

In the case of `COc1ccc(Cc2cc([C@@H]3O[C@H](CO)C(F)(F)[C@H](O)[C@H]3O)c(OC)cc2Cl)cc1` [Compound 87], on human SGLT1, the “SGLT1 % Inh @ 0.3 μM” value is recorded as 8.4%. In addition, on human SGLT2, the “SGLT2 % Inh @ 0.3 μM” value worked out at 76.0%.

Take `CCc1cc(OC)c([C@@H]2O[C@H](CO)C(F)(F)[C@H](O)[C@H]2O)cc1Cc1ccc(OC)cc1` [Compound 89, (2S,3R,4R,6R)-2-[4-ethyl-2-methoxy-5-[(4-methoxyphenyl)methyl]phenyl]-5,5-difluoro-6-(hydroxymethyl)tetrahydropyran-3,4-diol]: at human SGLT1, the inhibition at 0.3 µM was 48.1% and the IC50 was determined as 636 nM. For the same compound, on human SGLT2, the inhibition at 0.3 µM is 87.7% and the IC50 stood at 4.7 nM.

For `COc1ccc(Cc2cc([C@@H]3O[C@H](CO)C(F)(F)[C@H](O)[C@H]3O)c(OC)cc2OC)cc1` [Compound 92], on human SGLT1, the “SGLT1 % Inh @ 0.3 μM” value is on record as 30.2%. Also, on human SGLT2, the “SGLT2 % Inh @ 0.3 μM” value was found to be 81.9%.

Take `COc1c(Cc2ccc3c(c2)CCCO3)cc([C@@H]2O[C@H](CO)C(F)(F)[C@H](O)[C@H]2O)c2c1CCO2` [Compound 93]: on human SGLT1, the “SGLT1 % Inh @ 0.3 μM” value is 34.5%. For the same compound, the “SGLT2 % Inh @ 0.3 μM” value on human SGLT2 was 80.4%.

As to `CCc1cc(O)c([C@@H]2OC3(CC3)C(F)(F)[C@H](O)[C@H]2O)cc1Cc1ccc2c(c1)OCCO2` [Compound 94], the inhibition at 0.3 µM is 73% on human SGLT1 and 87.8% on human SGLT2. Further, the IC50 against human SGLT1 came to 66 nM; on human SGLT2, 16.4 nM.

Turning to `Cc1cc(O)c([C@@H]2O[C@H](CO)C(F)(F)[C@H](O)[C@H]2O)cc1Cc1ccc(OC(F)F)cc1` [Compound 96, (2S,3R,4R,6R)-2-[5-[[4-(difluoromethoxy)phenyl]methyl]-2-hydroxy-4-methyl-phenyl]-5,5-difluoro-6-(hydroxymethyl)tetrahydropyran-3,4-diol], the results for the inhibition at 0.3 µM on human SGLT1 and on human SGLT2 were 49.1% and 81.4%, respectively. Further, the IC50 on human SGLT1 was 318 nM; against human SGLT2, 4.8 nM.

`Cc1cc(O)c([C@@H]2O[C@H](CO)C(F)(F)[C@H](O)[C@H]2O)cc1Cc1ccc(OC(F)(F)F)cc1` [Compound 99, (2S,3R,4R,6R)-5,5-difluoro-2-(2-hydroxy-4-methyl-5-(4-(trifluoromethoxy)benzyl)phenyl)-6-(hydroxymethyl)-tetrahydro-2H-pyran-3,4-diol]: the results for the inhibition at 0.3 µM on human SGLT1 and on human SGLT2 were 17.3% and 84.7%, respectively.

With `COc1cc(C)c(Cc2ccc(OC(F)(F)F)cc2)cc1[C@@H]1O[C@H](CO)C(F)(F)[C@H](O)[C@H]1O` [Compound 101], the “SGLT1 % Inh @ 0.3 μM” value at human SGLT1 was 30.3%. The “SGLT2 % Inh @ 0.3 μM” value on human SGLT2 is given as 77.2%.

(Values after patent publication US20210238170A1, “5,5-Difluoro- and 5-Fluoro-5-Methyl-C-Glycoside Derivatives Useful As Dual SGLT1 / SGLT2 Modulators” (Janssen Pharmaceutica NV, priority 2018, published 2021).)
